Source: US7709514B2, “Therapeutic molecules and methods-1” (Cortical Pty Ltd, priority 2002, dated 2010)
Read-outs that look alike come from different tables or passages of the source.

Assays:
[1] = test system: IL-1-induced COX-2 expression; test: IL-1-induced COX-2 expression in S112 human dermal fibroblasts (MIF-dependent bioassay); type: cell-based; conditions: Homo sapiens, Fibroblast; for inhibition at 50 µM: read-out: % inhibition of IL-1-induced COX-2 expression; for inhibition at 25 µM: compound 25 μM
Experimental: The activity of compounds was studied in a bioassay utilising MIF-dependent activation of human dermal fibroblasts. […] IL-1-induced COX-2 expression is therefore a MIF-dependent event. […] Prior to experimentation, cells were seeded at 10^5 cells/ml in RPMI/0.1% BSA for 18 hours. […] After 6 hours, cells were collected and intracellular COX-2 protein determined by permeabilisation flow cytometry. […] Cellular fluorescence was determined using a flow cytometer. At least 5000 events were counted for each reading, each of which was performed in duplicate, and the results expressed in mean fluorescence intensity (MFI) after subtraction of negative control-labelled cell fluorescence. The effect of each compound was determined by subtracting the IL-1+compound-treated cell MFI from the IL-1-treated cell (control) MFI and expressed as % inhibition. In each case the % inhibition of IL-1-induced COX-2 expression is expressed as the mean, or mean±SEM where results are available from multiple experiments.

[2] = test system: antigen-specific T cell activation; test: antigen-specific (mBSA) activation of splenic T lymphocytes, 3H-thymidine incorporation; type: cell-based, mice; conditions: Mus musculus, T-cell, read-out: EC50, inhibition of T cell activation
Experimental: C57BL6/J male mice, aged 7-10 weeks old, were immunised with 200 μg of methylated bovine serum albumin (mBSA) dissolved in 20 μL of saline, emulsified in 200 μL of Freund's complete adjuvant (FCA) by subcutaneous injection. Seven (7) days later mice received a booster immunisation with 100 μg mBSA in 10 μL saline plus 100 μL FCA by subcutaneous injection. After a further seven (7) days mice were killed and spleens collected aseptically into Hanks buffered saline solution (HBSS). A single cell suspension was prepared in Petri dishes by flushing DMEM using a 26G needle and 2 mL syringe. The resulting cell suspension was centrifuged for 5-7 minutes and supernatant discarded. Erythrocytes were lysed using a solution containing 0.579% NH4Cl, 0.000037% EDTA, and 0.1% NaHCO3 in a 37° C. water bath. Tubes were then filled with DMEM and centrifuged for 5-7 minutes. The cell-containing pellet was then resuspended in DMEM containing 5% fetal calf serum TICS) and 0.05% 2-mercapto-ethanol at a concentration of 1×10^6 cells/mL and plated at 1×10^5 cells/well in 96-well plastic tissue culture plates. Test substances (compound or vehicle) were added and incubated for 1 hour in a 37° C., 5% CO2 incubator. The specific stimulating antigen, mBSA, was then added at 10-50 μg/ml and plates incubated for 30 hours in a 37° C., 5% CO2 incubator. Tritiated ^3H-thymidine was then added at a concentration of 0.5 μCi/well for a further 18 hours. Cells were harvested on a Packard cell harvester, and the harvested material added to 750 μL/tube scintillation fluid. Scintillation counts were read on a Wallac beta-emission counter.
The concentration at which T cell activation was suppressed by 50% compared to vehicle-only-treated cells (EC50) was calculated using Prism® software. […] Further compounds were also tested for their ability to inhibit antigen-specific T cell activation as a marker of the inhibition of the cytokine or biological activity of MIF using this assay. Table 5 lists the EC50 for each compound in this assay, performed with concentrations of mBSA of either 50 or 10 μg/ml.

[3] = test system: murine peritoneal macrophage nitric oxide production; test: inhibition of peritoneal macrophage nitric oxide release (Greiss assay); type: cell-based, mice; conditions: Mus musculus, LPS 10 ng/ml and interferon-γ 10 units/ml, 24 hours, read-out: % Nitrite concentration inhibition from control
Experimental: C57BL6/J male mice were injected intraperitoneally with 2 ml of thioglycollate. Five (5) days later peritoneal macrophages were collected by lavaging the peritoneum of anaesthetized mice with 3 ml of cold Hanks buffered saline solution. Cells from several mice were pooled, washed and re-suspended in DMEM supplemented with 5% FCS. Cells were plated in 96 well plastic tissue culture plates at 1×10^5 cells/well. Cells were treated with compound or vehicle for 1 hour in a 5% CO2 incubator at 37° C. Cells were then treated with LPS (10 ng/ml) and recombinant human interferon-γ (10 units/ml) and incubated for 24 hours. After 24 hours, 50 μl of supernatant from each well was carefully removed and transferred to ELISA plates. The concentration of nitrite in culture supernatants was measured by the Greiss assay (27). The results were defined as the percentage inhibition of nitrite concentration in compound-treated cell culture supernatants compared to that of vehicle-treated cells.

[4] = compound 50 μM, S112 cells, IL-1 0.1 ng/ml, 6 hours
[5] = S112 cells, IL-1 0.1 ng/ml, 6 hours

Row | Compound | EC50 ([2]; mBSA 10 μg/ml) | EC50 ([2]; mBSA 50 μg/ml) | inhibition at 50 µM [1, 4] | further results
1 | Cc1ccc2[nH]c(=O)[nH]c2c1 [Compound 2, 5-Methylbenzimidazol-2-one] | – | – | – | inhibition at 50 µM ([1]; 6 h): 13%; EC50 [2]: 7.29 µM; melting point: 300 to 302 °C
2 | O=C(OCCOCCO)c1ccc2[nH]c(=O)[nH]c2c1 [Compound 6, 5[2(1-oxy-2-hydroxyethyl)ethyl]benzimidazol-2-one-5-carboxylate] | 25.8 µM | > 100 µM | 17.8% | melting point: 227 to 228 °C
3 | COC(=O)c1ccc2[nH]c(=O)[nH]c2c1 [Compound 7, benzimidazol-2-one-5-methanoate] | 33.9 µM | 44.8 µM | 16.7% | –
4 | CCOC(=O)c1ccc2[nH]c(=O)[nH]c2c1 [Compound 8] | 25.4 µM | > 100 µM | 19.9% | –
5 | CCCCCOC(=O)c1ccc2[nH]c(=S)[nH]c2c1 [Compound 15, Pentyl-benzimidazole-2-thioxo-5-carboxylate] | 9.4 µM | 10.1 µM | 33.1% | –
6 | Cc1cc2[nH]c(=O)[nH]c2cc1Br [Compound 17, 5-Bromo-6-methybenzimidazol-2-one] | 2.91 µM | 10.7 µM | 22.4% | –
7 | Cc1cc2[nH]c(=O)[nH]c2cc1O [Compound 18, 5-Hydroxy-6-methybenzimidazol-2-one] | 19.3 µM | 34 µM | 2.4% | –
8 | Cc1c(Br)c(Br)c2[nH]c(=O)[nH]c2c1Br [Compound 20, 4,5,7-Tribromo-6-methylbenzimidazol-2-one] | – | – | – | inhibition at 25 µM [1, 5]: 28.5%
9 | Cc1cc2[nH]c(=O)[nH]c2cc1N [Compound 23, 5-Amino-6-methylbenzimidazol-2-one] | – | – | 8.5% | –
10 | Cc1cc2[nH]c(=O)[nH]c2cc1NC(=O)CSc1ncccn1 [Compound 24] | – | – | 30.3% | –
11 | CCCCCSC(=O)c1ccc2[nH]c(=O)[nH]c2c1 [Compound 25, Pentyl-benzimidazol-2-one-5-carbothioate] | > 100 µM | > 100 µM | – | –
12 | CCCCCOS(=O)(=O)c1ccc2[nH]c(=O)[nH]c2c1 [Compound 28, 2(3H)-benzimidazolone-5-sulfonic acid pentyl ester] | 2.19 µM | 7.37 µM | – | –
13 | CCCCNC(=N)c1ccc2[nH]c(=O)[nH]c2c1 [Compound 32, N-butyl-2-oxo-2,3-dihydro-1H-1,3-benzimidazole-5-carboximidamide] | > 100 µM | > 100 µM | 13.8% | melting point: 168 °C
14 | CCCCCCC(=O)c1ccc2c(c1)CC(=O)O2 [Compound 33] | 24.8 µM | 14 µM | – | melting point: 64 to 67 °C
15 | CCCCCc1ccc2[nH]c(=O)[nH]c2c1 [Compound 34, 5-Pentylbenzimidazol-2-one] | 13.5 µM | 49.9 µM | – | inhibition at 10 µM ([1]; compound 10 μM, S112 cells, IL-1 0.1 ng/ml, 6 hours): 14.9%

Now from value to compound, other results behind:

Row | EC50 ([2]; mBSA 10 μg/ml) | EC50 ([2]; mBSA 50 μg/ml) | Compound | inhibition at 50 µM [1, 4] | further results
16 | 77 µM | 61.9 µM | COC(=O)C(CO)NC(=O)c1ccc2[nH]c(=O)[nH]c2c1 (stereo not drawn) [Compound 9, methyl 3-hydroxy-2-{[(2-oxo-2,3-dihydro-1H-1,3-benzimidazol-5-yl)carbonyl]amino}propanoate] | 14.9% | –
17 | > 100 µM | 77.5 µM | O=C(NC(CO)C(=O)O)c1ccc2[nH]c(=O)[nH]c2c1 (stereo not drawn) [Compound 10, 3-hydroxy-2-{[(2-oxo-2,3-dihydro-1H-1,3-benzimidazol-5-yl)carbonyl]amino}propanoic acid] | 19.3% | –
18 | 44.4 µM | 50.7 µM | COC(=O)C(Cc1ccccc1)NC(=O)c1ccc2[nH]c(=O)[nH]c2c1 (stereo not drawn) [Compound 11, methyl 2-{[(2-oxo-2,3-dihydro-1H-1,3-benzimidazol-5-yl)carbonyl]amino}-3-phenyl propanoate] | 17.5% | inhibition at 25 µM ([3]; compound 25 μM): 3.1%; inhibition at 50 µM ([3]; compound 50 μM): 28.1%; inhibition at 100 µM ([3]; compound 100 μM): 65.5%
19 | > 100 µM | 77.9 µM | O=C(NC(Cc1ccccc1)C(=O)O)c1ccc2[nH]c(=O)[nH]c2c1 (stereo not drawn) [Compound 12, 2-{[(2-oxo-2,3-dihydro-1H-1,3-benzimidazol-5-yl)carbonyl]amino}-3-phenyl propanoic acid] | 19.9% | –
20 | 23.8 µM | 26 µM | CC(=O)OCC1OC(OC(=O)c2ccc3[nH]c(=O)[nH]c3c2)C(OC(C)=O)C(OC(C)=O)C1OC(C)=O (stereo not drawn) [Compound 16, 3,4,5-tris(acetyloxy)-6-[(acetyloxy)methyl]tetrahydro-2H-pyran-2-yl-benzimidazole-2-one-5-carboxylate] | – | –
21 | > 100 µM | > 100 µM | Cc1cc2[nH]c(=O)[nH]c2cc1[N+](=O)[O-] [Compound 22, 5-Methyl-6-nitrobenzimidazol-2-one] | – | inhibition at 25 µM [1, 5]: 30%
22 | 10.2 µM | 2.31 µM | O=C(O)CCCC(=O)c1ccc2[nH]c(=O)[nH]c2c1 [Compound 26, 5-(benzimidazol-2(3H)-one-6-yl)-5-oxopentanoic acid] | 9.8% | –
23 | 9.15 µM | 1.29 µM | CCCCCNS(=O)(=O)c1ccc2[nH]c(=O)[nH]c2c1 [Compound 27, 2(3H)-benzimidazolone-5-sulfonic acid pentyl amide] | 37.4% | melting point: 316 to 318 °C
